{"source": "patent US10253007B2", "about": "“Taxanes compounds, preparation method therefor, and uses thereof” (Jiangsu Tasly Diyi Pharmaceutical Co., Ltd., priority 2013, dated 2019)", "key": {"BGC-823 gastric cancer": {"tested_on": "BGC-823 gastric cancer", "test": "MTT assay, proliferation inhibition", "type": "cell-based", "settings": "Homo sapiens, read-out: Proliferation inhibition rate", "description": "(§1) 1. Cytotoxicity Assay Using Human Tumor Cell Lines\n(§2) Paclitaxel was used as the positive drug."}, "DU145 prostate cancer": {"tested_on": "DU145 prostate cancer", "test": "MTT assay, proliferation inhibition", "type": "cell-based", "settings": "Homo sapiens, DU-145, read-out: Proliferation inhibition rate", "description": "as §1, §2"}, "HeLa cervical cancer": {"tested_on": "HeLa cervical cancer", "test": "MTT assay, proliferation inhibition", "type": "cell-based", "settings": "Homo sapiens, read-out: Proliferation inhibition rate", "description": "as §1, §2"}, "K562 leukemia": {"tested_on": "K562 leukemia", "test": "MTT assay, proliferation inhibition", "type": "cell-based", "settings": "Homo sapiens, read-out: Proliferation inhibition rate", "description": "as §1, §2"}, "[1]": {"tested_on": "NCI-H460 non-small cell lung cancer", "test": "MTT assay, proliferation inhibition", "type": "cell-based", "settings": "Homo sapiens, read-out: Proliferation inhibition rate", "description": "as §1, §2"}, "HL60 leukemia": {"tested_on": "HL60 leukemia", "test": "MTT assay, proliferation inhibition", "type": "cell-based", "settings": "Homo sapiens, HL-60, read-out: Proliferation inhibition rate", "description": "as §1, §2"}, "HT29 colon cancer": {"tested_on": "HT29 colon cancer", "test": "MTT assay, proliferation inhibition", "type": "cell-based", "settings": "Homo sapiens, HT-29, read-out: Proliferation inhibition rate", "description": "as §1, §2"}, "MDA-MB-436 breast cancer": {"tested_on": "MDA-MB-436 breast cancer", "test": "MTT assay, proliferation inhibition", "type": "cell-based", "settings": "Homo sapiens, read-out: Proliferation inhibition rate", "description": "as §1, §2"}, "[2]": {"tested_on": "A549 non-small cell lung cancer", "test": "MTT assay, proliferation inhibition", "type": "cell-based", "settings": "Homo sapiens, read-out: Proliferation inhibition rate", "description": "as §1, §2"}, "LNCaP prostate cancer": {"tested_on": "LNCaP prostate cancer", "test": "MTT assay, proliferation inhibition", "type": "cell-based", "settings": "Homo sapiens, read-out: Proliferation inhibition rate", "description": "as §1, §2"}, "MCF-7 breast cancer": {"tested_on": "MCF-7 breast cancer", "test": "MTT assay, proliferation inhibition", "type": "cell-based", "settings": "Homo sapiens, MCF7, read-out: Proliferation inhibition rate", "description": "as §1, §2"}, "A2780 ovarian cancer": {"tested_on": "A2780 ovarian cancer", "test": "MTT assay, proliferation inhibition", "type": "cell-based", "settings": "Homo sapiens, read-out: Proliferation inhibition rate", "description": "as §1, §2"}, "A375 melanoma": {"tested_on": "A375 melanoma", "test": "MTT assay, proliferation inhibition", "type": "cell-based", "settings": "Homo sapiens, A-375, read-out: Proliferation inhibition rate", "description": "as §1, §2"}, "HCT 116 colon cancer": {"tested_on": "HCT 116 colon cancer", "test": "MTT assay, proliferation inhibition", "type": "cell-based", "settings": "Homo sapiens, read-out: Proliferation inhibition rate", "description": "as §1, §2"}, "[3]": {"test": "MTT assay, proliferation inhibition", "type": "cell-based", "settings": "Homo sapiens, LN-18 gastric cancer, read-out: Proliferation inhibition rate", "description": "as §1, §2"}, "B16 melanoma": {"tested_on": "B16 melanoma", "test": "MTT assay, proliferation inhibition", "type": "cell-based", "settings": "read-out: Proliferation inhibition rate", "description": "as §1, §2"}, "[4]": {"test": "Caco-2 cell monolayer membrane transport assay", "settings": "human; for recovery: Caco-2, Recovery rate in mass", "source_text": "(§3) Caco-2 Cell Monolayer Membrane Transport Assay\n(§4) Human-derived colorectal adenocarcinoma cell line Caco-2 cell monolayer model was used to study the bidirectional transport of the target compounds from the apical (AP) side to the basolateral (BL) side and from BL side to AP side. HPLC was used for quantitative analysis to calculate transport parameters, apparent permeability coefficient (Papp) and the efflux ratio."}, "Caco-2 cell monolayer": {"tested_on": "Caco-2 cell monolayer", "test": "Caco-2 cell monolayer membrane transport assay", "settings": "Caco-2 monolayer", "source_text": "as §3, §4"}}, "note": "“Also recorded” adds a separate entry of the source."}
{"compound": "CO[C@H]1C(=O)[C@]2(C)[C@@H](OC(=O)N(C)C)C[C@H]3OC[C@@]3(OC(C)=O)[C@H]2[C@H](OC(=O)c2ccccc2)[C@]2(O)C[C@H](OC(=O)[C@H](O)[C@@H](NC(=O)OC(C)(C)C)c3ccccc3)C(C)=C1C2(C)C", "note": "[PCMI-31]", "values": [{"measurement": "inhibition at 1 µM", "setting": "BGC-823 gastric cancer", "result": 96.2, "unit": "%"}, {"measurement": "inhibition at 1 µM", "setting": "DU145 prostate cancer", "result": 85.8, "unit": "%"}, {"measurement": "inhibition at 1 µM", "setting": "HeLa cervical cancer", "result": 103, "unit": "%"}, {"measurement": "inhibition at 1 µM", "setting": "K562 leukemia", "result": 93.2, "unit": "%"}, {"measurement": "inhibition at 1 µM", "setting": "[1]", "result": 87.7, "unit": "%"}, {"measurement": "inhibition at 1 µM", "setting": "HL60 leukemia", "result": 97.8, "unit": "%"}, {"measurement": "inhibition at 1 µM", "setting": "HT29 colon cancer", "result": 89.4, "unit": "%"}, {"measurement": "inhibition at 1 µM", "setting": "MDA-MB-436 breast cancer", "result": 86.3, "unit": "%"}, {"measurement": "inhibition at 1 µM", "setting": "[2]", "result": 76, "unit": "%"}, {"measurement": "inhibition at 1 µM", "setting": "LNCaP prostate cancer", "result": 82.2, "unit": "%"}, {"measurement": "inhibition at 1 µM", "setting": "MCF-7 breast cancer", "result": 90.8, "unit": "%"}, {"measurement": "inhibition at 1 µM", "setting": "A2780 ovarian cancer", "result": 95.6, "unit": "%"}, {"measurement": "inhibition at 1 µM", "setting": "A375 melanoma", "result": 88.4, "unit": "%"}, {"measurement": "inhibition at 1 µM", "setting": "HCT 116 colon cancer", "result": 60.7, "unit": "%"}, {"measurement": "inhibition at 1 µM", "setting": "[3]", "result": 95.6, "unit": "%"}, {"measurement": "inhibition at 1 µM", "setting": "B16 melanoma", "result": 81.8, "unit": "%"}, {"measurement": "Papp B→A", "setting": "[4]; Caco-2", "result": 26, "unit": "×10⁻⁶ cm/s"}, {"measurement": "efflux ratio", "setting": "[4]; Caco-2", "result": 1.73}, {"measurement": "Papp A→B", "setting": "[4]; Caco-2, Papp A-B, Caco-2 cell line (21 days), bidirectional transport, Table 5", "result": 15, "unit": "×10⁻⁶ cm/s"}, {"measurement": "Papp A→B", "setting": "[4]; Caco-2, Papp A-B, Mean, Caco-2, A-B, mean of two samples", "result": 10.6, "unit": "×10⁻⁶ cm/s"}, {"measurement": "Papp A→B", "setting": "[4]; Caco-2, Papp A-B, Sample-01, Caco-2, A-B, Sample-01", "result": 11.2, "unit": "×10⁻⁶ cm/s"}, {"measurement": "Papp A→B", "setting": "[4]; Caco-2, Papp A-B, Sample-02, Caco-2, A-B, Sample-02", "result": 9.91, "unit": "×10⁻⁶ cm/s"}, {"measurement": "Papp A→B", "setting": "[4]; Caco-2, Papp A-to-B, Caco-2", "result": "> 10", "unit": "×10⁻⁶ cm/s"}, {"measurement": "recovery", "setting": "[4]; Mean, Caco-2, A-B, mean of two samples", "result": 86.8, "unit": "%"}, {"measurement": "recovery", "setting": "[4]; Sample-01, Caco-2, A-B, Sample-01", "result": 83, "unit": "%"}, {"measurement": "recovery", "setting": "[4]; Sample-02, Caco-2, A-B, Sample-02", "result": 90.6, "unit": "%"}, {"measurement": "membrane permeability (in words)", "setting": "Caco-2 cell monolayer", "result": "highly permeable substrates; also recorded: highest membrane permeability"}]}
